The solubility (thermodynamic) is solubility found after equilibrating the solid with the medium. By AUC(0-inf) is commonly meant the area under the concentration-time curve extrapolated to infinity. Read a low AUC(0-inf) as low exposure. The Cmax is the maximum level reached in the sampled fluid or tissue. Usually Tmax stands for the time at which the peak concentration occurs. In general, bioavailability refers to the share of a dose that reaches the circulation, judged against a reference dose that is usually intravenous. Low readings indicate poor availability, high ones good availability. One may read the AUC as concentration integrated over time.

We go through 22 compounds from ChEMBL document CHEMBL1156884, “Improvement of physiochemical properties of the tetrahydroazepinoindole series of farnesoid X receptor (FXR) agonists: beneficial modulation of lipids in primates” (J Med Chem, 2010).

Converted amounts (≈) assume the structure as drawn.

The nature of series [1]: Equilibrium solubility in 0.5% methylcellulose/2% Tween-80 in water. It is filed as physicochemical.
Series [2] in a line: (§1) AUC (0 to infinity) in Sprague-Dawley rat at 3 mg/kg, iv. It is filed as ADME, organism-based, Plasma. The arrangement: time infinity, dose 3 mg/kg, route intravenous. As to conditions: Sprague-Dawley, plasma.
A short description of series [3]: Cmax in Sprague-Dawley rat at 3 mg/kg, po. It is filed as ADME, organism-based. On the set-up: dose 3 mg/kg, route oral. As to conditions: in vivo.
Series [4] is described as follows: AUC (0 to infinity) in Sprague-Dawley rat at 3 mg/kg, po. It is filed as ADME, organism-based. The arrangement: time infinity, dose 3 mg/kg, route oral. As to conditions: plasma.
Series [5] in a line: Tmax in C57 mouse at 3 mg/kg, po. It is filed as ADME, organism-based. On the set-up: dose 3 mg/kg, route oral. As to conditions: in vivo.
Series [6] in a line: Cmax in C57 mouse at 3 mg/kg, po. It is filed as ADME, organism-based. The arrangement: dose 3 mg/kg, route oral. As to conditions: in vivo.
Series [7] can be described thus: AUC (0 to infinity) in C57 mouse at 3 mg/kg, iv. It is filed as ADME, organism-based. As to conditions: plasma. The arrangement: time infinity, dose 3 mg/kg, route intravenous.
A short description of series [8]: Oral bioavailability in Sprague-Dawley rat 3 mg/kg. It is filed as ADME, organism-based. As to conditions: in vivo.
A short description of series [9]: Tmax in Sprague-Dawley rat 3 mg/kg, po. It is filed as ADME, organism-based. On the set-up: dose 3 mg/kg, route oral. As to conditions: in vivo.
Series [10] in a line: AUC (0 to infinity) in C57 mouse at 3 mg/kg, po. It is filed as ADME, organism-based. The arrangement: time infinity, dose 3 mg/kg, route oral. As to conditions: plasma.
In series [11] the test system is Rattus norvegicus. Described as §1. It is filed as ADME, organism-based, Plasma. The arrangement: time infinity, dose 3 mg/kg, route intravenous. As to conditions: in vivo.
Series [12] in a line: Tmax in Sprague-Dawley rat 30 mg/kg, po. It is filed as ADME, organism-based. The arrangement: dose 30 mg/kg, route oral. As to conditions: in vivo.
The subject of series [13] is Rattus norvegicus. Briefly: AUC (0 to infinity) in Sprague-Dawley rat at 30 mg/kg, po. It is filed as ADME, organism-based, Plasma. On the set-up: time infinity, dose 30 mg/kg, route oral. As to conditions: in vivo.
Series [14] can be described thus: Tmax in C57 mouse at 30 mg/kg, po. It is filed as ADME, organism-based. On the set-up: dose 30 mg/kg, route oral. As to conditions: in vivo.
Series [15] in a line: Cmax in C57 mouse at 30 mg/kg, po. The arrangement: dose 30 mg/kg, route oral. As to conditions: in vivo. It is filed as ADME, organism-based.
A short description of series [16]: Cmax in Sprague-Dawley rat at 30 mg/kg, po. It is filed as ADME, organism-based. On the set-up: dose 30 mg/kg, route oral. As to conditions: in vivo.
The subject of series [17] is Rattus norvegicus. The series can be described thus: Oral bioavailability in Sprague-Dawley rat at 30 mg/kg. As to conditions: in vivo. It is filed as ADME, organism-based.
Series [18] can be described thus: AUC (0 to infinity) in C57 mouse at 30 mg/kg, po. It is filed as ADME, organism-based. The arrangement: time infinity, dose 30 mg/kg, route oral. As to conditions: plasma.
Series [19] is described as follows: Oral bioavailability in C57 mouse at 30 mg/kg. It is filed as ADME, organism-based. As to conditions: in vivo.

Regarding `CC(C)OC(=O)C1=CN(C(=O)c2ccc(OCCN3CCOCC3)cc2)CC(C)(C)c2c1[nH]c1ccccc21`, the thermodynamic solubility in series [1] turned out to be 80 µg/mL (≈ 150 µM).
On to `CC(C)OC(=O)C1=CN(C(=O)c2ccc(OCCCN3CCOCC3)cc2)CC(C)(C)c2c1[nH]c1cc(F)ccc21`, for which the AUC(0-inf) in [2] is 960 ng·h/mL; in [4], 361 ng·h/mL; in series [7], 1720 ng·h/mL; in series [10], 370 ng·h/mL. The Cmax in series [3] was determined as 68 ng/mL; in [6] it was 81 ng/mL. Also, the figures for the Tmax in [5] and in [9] were 1 h and 2 h, respectively. In [8], this compound displayed a bioavailability of 38%. The same compound registered a solubility (thermodynamic) in [1] of 250 µg/mL (≈ 444 µM).
`CC(C)OC(=O)C1=CN(C(=O)c2ccc(OCCCN3CCCC3)cc2)CC(C)(C)c2c1[nH]c1ccccc21` displayed a thermodynamic solubility in [1] of 2330 µg/mL (≈ 4400 µM).
Same read-out and setting: under `CC(C)OC(=O)C1=CN(C(=O)c2ccc(OCCN3CCOCC3)cc2)CC(C)(C)c2c1[nH]c1cc(F)ccc21.Cl` stands over 6000 µg/mL; under `CC(C)OC(=O)C1=CN(C(=O)c2ccc(OCCCN3CCN(C)CC3)cc2)CC(C)(C)c2c1[nH]c1ccccc21`, 1140 µg/mL (≈ 2040 µM); under `CC(C)OC(=O)C1=CN(C(=O)c2ccc(OCCCN(C)C)cc2)CC(C)(C)c2c1[nH]c1ccccc21`, 2470 µg/mL (≈ 4900 µM).
In turn, `CC(C)OC(=O)C1=CN(C(=O)c2ccc(OCCN3CCCCC3)cc2)CC(C)(C)c2c1[nH]c1ccccc21` showed a solubility (thermodynamic) in series [1] of 80 µg/mL (≈ 151 µM).
On the same count and under the same terms, then `CC(C)OC(=O)C1=CN(C(=O)c2ccc(OCCN3CCCC3)cc2)CC(C)(C)c2c1[nH]c1ccccc21`, with 24 µg/mL (≈ 46.5 µM).
The compound `CC(C)OC(=O)C1=CN(C(=O)c2cccc(OCCN3CCCCC3)c2)CC(C)(C)c2c1[nH]c1ccccc21` displayed a thermodynamic solubility in [1] of 111 µg/mL (≈ 210 µM).
With `CC(C)OC(=O)C1=CN(C(=O)c2cccc(OCCN3CCOCC3)c2)CC(C)(C)c2c1[nH]c1ccccc21`, the thermodynamic solubility in series [1] is 155 µg/mL (≈ 292 µM).
`CC(C)OC(=O)C1=CN(C(=O)c2cccc(OCCCN3CCN(C)CC3)c2)CC(C)(C)c2c1[nH]c1ccccc21` yielded a solubility (thermodynamic) in series [1] of 1740 µg/mL (≈ 3110 µM).
For `CC(C)OC(=O)C1=CN(C(=O)c2ccc(OCCN(C)C)cc2)CC(C)(C)c2c1[nH]c1ccccc21`, in [1], the thermodynamic solubility stood at 17 µg/mL (≈ 34.7 µM).
Turning to `CC(C)OC(=O)C1=CN(C(=O)c2cccc(OCCCN3CCCCC3)c2)CC(C)(C)c2c1[nH]c1ccccc21`, in [1], the thermodynamic solubility was 1040 µg/mL (≈ 1920 µM).
`CC(C)OC(=O)C1=CN(C(=O)c2ccc(OCCN3CCOCC3)cc2)CC(C)(C)c2c1[nH]c1cc(F)ccc21`: the AUC in the series with Rattus norvegicus [11] was found to be 781 ng·h/mL; in the series with Rattus norvegicus [13], 193 ng·h/mL. For the same compound, the time of peak concentration (Tmax) is 1.7 h in series [12] and 1 h in series [14]. The Cmax in [15] turned out to be 1130 ng/mL; in [16], 35 ng/mL. The values for the AUC(0-inf) in [7] and in [18] were 1260 ng·h/mL and 6700 ng·h/mL, respectively. The compound also displayed a F in the series on Rattus norvegicus [17] of 25%. In series [1], this compound registered a solubility (thermodynamic) of 280 µg/mL (≈ 509 µM). Further, the bioavailability in series [19] is 53%.
Turning to `CC(C)OC(=O)C1=CN(C(=O)c2cccc(OCCCN3CCOCC3)c2)CC(C)(C)c2c1[nH]c1ccccc21`, in series [1], the solubility (thermodynamic) was found to be 118 µg/mL (≈ 216 µM).
For the compound `CC(C)OC(=O)C1=CN(C(=O)c2ccc(OCCCN3CCOCC3)cc2)CC(C)(C)c2c1[nH]c1ccccc21`, in [1], the solubility (thermodynamic) stood at 200 µg/mL (≈ 367 µM).
On the same count and under the same terms, then `CC(C)OC(=O)C1=CN(C(=O)c2ccc(OCCN3CCN(C)CC3)cc2)CC(C)(C)c2c1[nH]c1ccccc21`, with 82 µg/mL (≈ 151 µM); and `CC(C)OC(=O)C1=CN(C(=O)c2ccc(CN3CCOCC3)cc2)CC(C)(C)c2c1[nH]c1ccccc21`, with 245 µg/mL (≈ 488 µM); and `CC(C)OC(=O)C1=CN(C(=O)c2cccc(OCCN(C)C)c2)CC(C)(C)c2c1[nH]c1ccccc21`, with 536 µg/mL (≈ 1090 µM).
As for `CC(C)OC(=O)C1=CN(C(=O)c2ccc(OCCCN3CCOCC3)cc2)CC(C)(C)c2c1[nH]c1cc(F)ccc21.Cl`, the solubility (thermodynamic) in [1] was found to be 5920 µg/mL.
In series [1], `CC(C)OC(=O)C1=CN(C(=O)c2ccc(OCCCN3CCCCC3)cc2)CC(C)(C)c2c1[nH]c1ccccc21` gave a thermodynamic solubility of 1220 µg/mL (≈ 2240 µM).
The same measure, in the same setting: under `CC(C)OC(=O)C1=CN(C(=O)c2ccc(CN3CCOCC3)cc2)CC(C)(C)c2c1[nH]c1cc(F)ccc21` stands 380 µg/mL (≈ 731 µM).
